The text below walks through data of US20260327204A1, “DEGRADERS OF CYCLIN-DEPENDENT KINASE 12/13, COMPOSITIONS, AND USES THEREOF” (ZHEJIANG UNIVERSITY, priority 2023, published 2026).

Test [1] deals with CDK12 (Homo sapiens, UniProt Q9NYV4). Briefly: Western blot degradation of CDK12 (Example 3). Type of test: cell-based. More on the design: degradation of CDK12/13 protein in leukemia cells KASUMI-1, MV4-11, and Jurkat; endogenous in cells. The conditions noted are these: DC50 classes, cell line not given; for DC50: read-out: CDK12 degradation Activity.
CDK12, sequence (Q9NYV4 whole entry): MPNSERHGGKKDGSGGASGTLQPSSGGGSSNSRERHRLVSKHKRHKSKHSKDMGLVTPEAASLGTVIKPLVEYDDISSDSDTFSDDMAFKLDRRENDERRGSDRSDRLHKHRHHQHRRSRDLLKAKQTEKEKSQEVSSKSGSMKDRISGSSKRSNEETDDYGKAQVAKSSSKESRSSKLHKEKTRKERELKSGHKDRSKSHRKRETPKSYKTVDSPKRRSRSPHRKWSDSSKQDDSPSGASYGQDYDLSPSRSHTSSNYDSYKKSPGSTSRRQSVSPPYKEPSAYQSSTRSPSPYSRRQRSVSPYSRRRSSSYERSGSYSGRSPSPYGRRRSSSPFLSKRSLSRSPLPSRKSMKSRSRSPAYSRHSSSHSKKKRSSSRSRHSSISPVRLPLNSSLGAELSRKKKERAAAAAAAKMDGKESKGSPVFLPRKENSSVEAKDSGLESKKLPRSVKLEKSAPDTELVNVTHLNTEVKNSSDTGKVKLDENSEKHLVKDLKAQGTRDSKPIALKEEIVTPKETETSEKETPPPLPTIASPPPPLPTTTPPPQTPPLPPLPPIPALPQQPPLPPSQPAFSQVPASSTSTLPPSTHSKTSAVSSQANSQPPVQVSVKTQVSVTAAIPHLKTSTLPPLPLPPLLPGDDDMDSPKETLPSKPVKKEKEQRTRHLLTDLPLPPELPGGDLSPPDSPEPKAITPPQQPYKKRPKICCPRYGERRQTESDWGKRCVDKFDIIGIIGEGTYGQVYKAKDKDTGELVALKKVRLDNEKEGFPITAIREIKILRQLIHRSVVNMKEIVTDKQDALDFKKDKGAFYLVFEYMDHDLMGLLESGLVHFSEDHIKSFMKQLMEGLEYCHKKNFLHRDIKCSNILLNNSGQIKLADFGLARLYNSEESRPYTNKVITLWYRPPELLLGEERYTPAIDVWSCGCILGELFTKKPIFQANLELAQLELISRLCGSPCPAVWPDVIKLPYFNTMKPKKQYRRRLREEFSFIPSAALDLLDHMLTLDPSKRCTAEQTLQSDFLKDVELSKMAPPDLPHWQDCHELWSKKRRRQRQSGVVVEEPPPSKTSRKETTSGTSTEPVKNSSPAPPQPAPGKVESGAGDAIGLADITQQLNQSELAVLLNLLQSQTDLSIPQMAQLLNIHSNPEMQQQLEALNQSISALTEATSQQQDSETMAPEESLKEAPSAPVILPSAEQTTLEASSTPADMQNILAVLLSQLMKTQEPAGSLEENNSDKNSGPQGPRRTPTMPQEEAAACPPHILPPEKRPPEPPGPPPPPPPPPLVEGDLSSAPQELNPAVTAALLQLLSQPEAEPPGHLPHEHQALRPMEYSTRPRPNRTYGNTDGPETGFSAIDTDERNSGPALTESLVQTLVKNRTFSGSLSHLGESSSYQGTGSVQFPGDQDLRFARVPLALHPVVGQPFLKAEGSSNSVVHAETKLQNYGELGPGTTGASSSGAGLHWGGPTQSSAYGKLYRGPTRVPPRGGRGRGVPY
CDK12, sequence (O75909 whole entry partner): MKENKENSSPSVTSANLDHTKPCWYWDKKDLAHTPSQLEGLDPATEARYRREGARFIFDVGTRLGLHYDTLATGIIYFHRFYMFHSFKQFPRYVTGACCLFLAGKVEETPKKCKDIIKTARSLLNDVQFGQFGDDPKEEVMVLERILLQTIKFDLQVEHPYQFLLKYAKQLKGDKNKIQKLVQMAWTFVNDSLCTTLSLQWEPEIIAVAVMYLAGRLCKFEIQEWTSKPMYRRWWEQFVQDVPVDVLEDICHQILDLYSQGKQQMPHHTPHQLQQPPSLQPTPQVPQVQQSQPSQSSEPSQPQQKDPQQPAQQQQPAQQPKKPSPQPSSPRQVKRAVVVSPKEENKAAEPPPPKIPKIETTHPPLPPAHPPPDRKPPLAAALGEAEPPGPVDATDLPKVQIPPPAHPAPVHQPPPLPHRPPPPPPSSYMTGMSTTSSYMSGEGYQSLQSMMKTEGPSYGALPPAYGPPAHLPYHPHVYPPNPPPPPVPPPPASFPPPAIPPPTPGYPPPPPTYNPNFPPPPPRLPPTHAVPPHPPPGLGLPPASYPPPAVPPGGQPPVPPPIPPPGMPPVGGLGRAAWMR
Test [2] concerns the target CDK13 (Homo sapiens, UniProt Q14004). Briefly: Western blot degradation of CDK13 (Example 3). More on the design: degradation of CDK12/13 protein in leukemia cells KASUMI-1, MV4-11, and Jurkat; endogenous in cells. Type of test: cell-based. The conditions noted are these: DC50 classes; cell line not given; read-out: CDK13 degradation Activity.

CDK13, sequence (Q14004 whole entry): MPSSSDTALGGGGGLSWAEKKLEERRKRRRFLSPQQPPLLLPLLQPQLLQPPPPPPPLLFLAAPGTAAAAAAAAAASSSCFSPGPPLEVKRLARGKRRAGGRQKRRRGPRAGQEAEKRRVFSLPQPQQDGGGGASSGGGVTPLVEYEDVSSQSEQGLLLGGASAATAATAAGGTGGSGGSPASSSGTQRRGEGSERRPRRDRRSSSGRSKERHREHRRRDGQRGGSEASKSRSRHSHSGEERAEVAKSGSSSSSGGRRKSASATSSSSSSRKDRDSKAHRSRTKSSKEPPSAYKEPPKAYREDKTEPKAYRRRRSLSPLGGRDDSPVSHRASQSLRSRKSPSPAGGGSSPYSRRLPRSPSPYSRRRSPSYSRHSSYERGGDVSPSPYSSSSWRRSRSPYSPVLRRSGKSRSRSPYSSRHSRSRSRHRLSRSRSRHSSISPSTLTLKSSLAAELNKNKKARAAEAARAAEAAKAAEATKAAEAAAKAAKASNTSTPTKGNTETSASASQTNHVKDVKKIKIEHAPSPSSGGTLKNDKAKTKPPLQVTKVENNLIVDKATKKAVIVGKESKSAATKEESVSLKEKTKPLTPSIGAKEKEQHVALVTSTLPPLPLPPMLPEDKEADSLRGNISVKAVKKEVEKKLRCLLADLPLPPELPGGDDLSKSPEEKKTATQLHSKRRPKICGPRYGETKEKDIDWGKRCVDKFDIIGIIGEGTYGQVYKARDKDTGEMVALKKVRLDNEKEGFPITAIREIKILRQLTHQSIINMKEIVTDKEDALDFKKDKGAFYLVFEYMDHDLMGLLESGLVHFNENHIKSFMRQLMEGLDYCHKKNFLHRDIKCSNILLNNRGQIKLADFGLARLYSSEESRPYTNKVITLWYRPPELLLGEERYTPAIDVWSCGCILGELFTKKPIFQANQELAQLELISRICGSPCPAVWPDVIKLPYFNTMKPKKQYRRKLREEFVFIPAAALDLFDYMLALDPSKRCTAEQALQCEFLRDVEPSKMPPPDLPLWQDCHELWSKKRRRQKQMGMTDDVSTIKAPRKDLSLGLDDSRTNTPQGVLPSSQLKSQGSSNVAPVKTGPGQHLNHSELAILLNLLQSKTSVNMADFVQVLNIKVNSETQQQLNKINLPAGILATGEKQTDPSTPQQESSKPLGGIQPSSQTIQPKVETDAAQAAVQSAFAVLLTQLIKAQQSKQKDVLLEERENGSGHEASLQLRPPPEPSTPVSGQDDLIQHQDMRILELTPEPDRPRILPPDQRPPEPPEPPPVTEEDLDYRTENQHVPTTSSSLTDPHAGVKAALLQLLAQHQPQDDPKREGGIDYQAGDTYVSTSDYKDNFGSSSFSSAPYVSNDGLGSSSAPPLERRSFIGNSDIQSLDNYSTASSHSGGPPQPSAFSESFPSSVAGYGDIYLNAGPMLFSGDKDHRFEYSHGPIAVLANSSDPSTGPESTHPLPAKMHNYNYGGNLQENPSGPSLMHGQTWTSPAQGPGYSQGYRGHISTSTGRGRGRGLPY
CDK13, sequence (O75909 whole entry partner): as the sequence (O75909 whole entry partner) above

`CC(=O)N(c1ccc(-c2cnc(N3CCN(c4cc(NC5CCC(=O)NC5=O)ccc4F)CC3)nc2)cc1)[C@H]1CC[C@H](Nc2ncc3ccccc3n2)CC1` (stereo partly drawn) [Formula 130, N-(4-(2-(4-(5-((2,6-dioxopiperidin-3-yl)amino)-2-fluorophenyl)piperazin-1-yl)pyrimidin-5-yl)phenyl)-N-((1R,4R)-4-(quinazolin-2-ylamino)cyclohexyl)acetamide]: the DC50 in test [1] and in test [2] was 1000 to 3000 nM in each case.
As to `CC(=O)N(c1ccc(-c2cnc(N3CCN(CC(=O)N[C@H](C(=O)N4C[C@H](O)C[C@H]4C(=O)N[C@@H](C)c4ccc(-c5scnc5C)cc4)C(C)(C)C)CC3)nc2)cc1)[C@H]1CC[C@H](Nc2ncc3ccccc3n2)CC1` [Formula 148, (2S,4R)-1-((S)-3,3-dimethyl-2-(2-(4-(5-(4-(N-((1R,4R)-4-(quinazolin-2-ylamino)cyclohexyl)acetamido)phenyl)pyrimidin-2-yl)piperazin-1-yl)acetamido)butanoyl)-4-hydroxy-N—((S)-1-(4-(4-methylthiazol-5-yl)phenyl)ethyl)pyrrolidine-2-carboxamide], the DC50 in test [1] and in test [2] was < 100 nM throughout.
Regarding `CC(=O)N(c1ccc(-c2cnc(N3CCN(c4cc(C(C(=O)N5C[C@H](O)C[C@H]5C(=O)N[C@@H](C)c5ccc(-c6scnc6C)cc5)C(C)C)on4)CC3)nc2)cc1)[C@H]1CC[C@@H](Nc2ncc3ccccc3n2)CC1` (single isomer, unassigned) [Formula 156], the DC50 in test [1] and in test [2] was < 100 nM each time.
For the compound `CC(=O)N(c1ccc(-c2cnc(O[C@@H]3CCN(c4ccc5c(c4)C(=O)N(C4CCC(=O)NC4=O)C5=O)C3)nc2)cc1)[C@H]1CC[C@H](Nc2ncc3ccccc3n2)CC1` (stereo partly drawn) [Formula 109, N-(4-(2-(((3R)-1-(2-(2,6-dioxopiperidin-3-yl)-1,3-dioxoisoindolin-5-yl)pyrrolidin-3-yl)oxy)pyrimidin-5-yl)phenyl)-N-((1R,4R)-4-(quinazolin-2-ylamino)cyclohexyl)acetamide], the DC50 in test [1] and in test [2] was 100 to 500 nM throughout.
Regarding `CC(=O)N(c1ccc(-c2cnc(N3CCN(c4cc5c(cc4F)C(=O)N(C4CCC(=O)NC4=O)C5=O)CC3)nc2)cc1)[C@H]1CC[C@H](Nc2ncc3ccccc3n2)CC1` (stereo partly drawn) [Formula 114, N-(4-(2-(4-(2-(2,6-dioxopiperidin-3-yl)-6-fluoro-1,3-dioxoisoindolin-5-yl)piperazin-1-yl)pyrimidin-5-yl)phenyl)-N-((1R,4R)-4-(quinazolin-2-ylamino)cyclohexyl)acetamide], the DC50 in test [1] and in test [2] was 1000 to 3000 nM each time.
Regarding `CC(=O)N(c1ccc(N2CCN(CC3CN(c4ccc5c(c4)C(=O)N(C4CCC(=O)NC4=O)C5=O)C3)CC2)cc1)[C@H]1CC[C@H](Nc2ncc3ccccc3n2)CC1` (stereo partly drawn) [Formula 127, N-(4-(4-((1-(2-(2,6-dioxopiperidin-3-yl)-1,3-dioxoisoindolin-5-yl)azetidin-3-yl)methyl)piperazin-1-yl)phenyl)-N-((1R,4R)-4-(quinazolin-2-ylamino)cyclohexyl)acetamide], the DC50 in test [1] and in test [2] was 500 to 1000 nM each time.
Turning to `CC(=O)N(c1ccc(-c2cnc(OC3CCN(CC(=O)N[C@H](C(=O)N4C[C@H](O)C[C@H]4C(=O)N[C@@H](C)c4ccc(-c5scnc5C)cc4)C(C)(C)C)CC3)nc2)cc1)[C@H]1CC[C@H](Nc2ncc3ccccc3n2)CC1` [Formula 136, (2S,4R)-1-((S)-3,3-dimethyl-2-(2-(4-((5-(4-(N-((1R,4R)-4-(quinazolin-2-ylamino)cyclohexyl)acetamido)phenyl)pyrimidin-2-yl)oxy)piperidin-1-yl)acetamido)butanoyl)-4-hydroxy-N—((S)-1-(4-(4-methylthiazol-5-yl)phenyl)ethyl)pyrrolidine-2-carboxamide], the DC50 in test [1] and in test [2] was 500 to 1000 nM throughout.
Turning to `CC(=O)N(c1ccc(-c2ccc(N3CCN(C(=O)N[C@H](C(=O)N4C[C@H](O)CC4C(=O)N[C@@H](C)c4ccc(-c5scnc5C)cc4)C(C)(C)C)CC3)nc2)cc1)[C@H]1CC[C@H](Nc2ncc3ccccc3n2)CC1` (stereo partly drawn) [Formula 145], in test [1], the “CDK12 degradation Activity” value was “−”. Also, the DC50 in test [2] lay within 3000 to 10000 nM.
Turning to `CC(=O)N(c1ccc(-c2ccc(OCC3CCN(CC(=O)N[C@H](C(=O)N4C[C@H](O)C[C@H]4C(=O)N[C@@H](C)c4ccc(-c5scnc5C)cc4)C(C)(C)C)CC3)nc2)cc1)[C@H]1CC[C@H](Nc2ncc3ccccc3n2)CC1` [Formula 133, (2S,4R)-1-((S)-3,3-dimethyl-2-(2-(4-(((5-(4-(N-((1R,4R)-4-(quinazolin-2-ylamino)cyclohexyl)acetamido)phenyl)pyridin-2-yl)oxy)methyl)piperidin-1-yl)acetamido)butanoyl)-4-hydroxy-N—((S)-1-(4-(4-methylthiazol-5-yl)phenyl)ethyl)pyrrolidine-2-carboxamide], the DC50 is 500 to 1000 nM in test [1] and 100 to 500 nM in test [2].
Regarding `CC(=O)N(c1ccc(-c2cnc(N3CCN(c4cnn([C@H](C(=O)N5C[C@H](O)C[C@H]5C(=O)N[C@@H](C)c5ccc(-c6scnc6C)cc5)C(C)C)c4)CC3)nc2)cc1)[C@H]1CC[C@H](Nc2ncc3ccccc3n2)CC1` [Formula 154, (2S,4R)-4-hydroxy-1-((S)-3-methyl-2-(4-(4-(5-(4-(N-((1R,4R)-4-(quinazolin-2-ylamino)cyclohexyl)acetamido)phenyl)pyrimidin-2-yl)piperazin-1-yl)-1H-pyrazol-1-yl)butanoyl)-N—((S)-1-(4-(4-methylthiazol-5-yl)phenyl)ethyl)pyrrolidine-2-carboxamide], the DC50 in test [1] is 100 to 500 nM; in test [2], < 100 nM.
For `CC(=O)N(c1ccc(-c2cnn(CC3CN(c4ccc5c(c4)C(=O)N(C4CCC(=O)NC4=O)C5=O)C3)c2)cc1)[C@H]1CC[C@H](Nc2ncc3ccccc3n2)CC1` (stereo partly drawn) [Formula 115, N-(4-(1-((1-(2-(2,6-dioxopiperidin-3-yl)-1,3-dioxoisoindolin-5-yl)azetidin-3-yl)methyl)-1H-pyrazol-4-yl)phenyl)-N-((1R,4R)-4-(quinazolin-2-ylamino)cyclohexyl)acetamide], in that order: 1000 to 3000 nM and 1000 to 3000 nM.
On to `CC(=O)N(c1ccc(-c2cnn(C3CCN(CC(=O)N[C@H](C(=O)N4C[C@H](O)C[C@H]4C(=O)N[C@@H](C)c4ccc(-c5scnc5C)cc4)C(C)(C)C)CC3)c2)cc1)[C@H]1CC[C@H](Nc2ncc3ccccc3n2)CC1` [Formula 139], for which the DC50 in test [1] and in test [2] was 1000 to 3000 nM each time.
Take `CC(=O)N(c1ccc(-c2ccn(CC3CN(c4ccc5c(c4)C(=O)N(C4CCC(=O)NC4=O)C5=O)C3)c(=O)c2)cc1)[C@H]1CC[C@H](Nc2ncc3ccccc3n2)CC1` (stereo partly drawn) [Formula 112, N-(4-(1-((1-(2-(2,6-dioxopiperidin-3-yl)-1,3-dioxoisoindolin-5-yl)azetidin-3-yl)methyl)-2-oxo-1,2-dihydropyridin-4-yl)phenyl)-N-((1R,4R)-4-(quinazolin-2-ylamino)cyclohexyl)acetamide]: the DC50 in test [1] and in test [2] was 100 to 500 nM throughout.
On to `CC(=O)N(c1ccc(-c2ccc(N3CCN(c4cnn([C@H](C(=O)N5C[C@H](O)C[C@H]5C(=O)N[C@@H](C)c5ccc(-c6scnc6C)cc5)C(C)C)c4)CC3)nc2)cc1)[C@H]1CC[C@H](Nc2ncc3ccccc3n2)CC1` [Formula 152, (2S,4R)-4-hydroxy-1-((S)-3-methyl-2-(4-(4-(5-(4-(N-((1R,4R)-4-(quinazolin-2-ylamino)cyclohexyl)acetamido)phenyl)pyridin-2-yl)piperazin-1-yl)-1H-pyrazol-1-yl)butanoyl)-N—((S)-1-(4-(4-methylthiazol-5-yl)phenyl)ethyl)pyrrolidine-2-carboxamide], for which the DC50 in test [1] and in test [2] was 100 to 500 nM throughout.
As for `CC(=O)N(c1ccc(N2CCN(C3CCN(c4ccc5c(c4)C(=O)N(C4CCC(=O)NC4=O)C5=O)CC3)CC2)cc1)[C@H]1CC[C@H](Nc2ncc3ccccc3n2)CC1` (stereo partly drawn) [Formula 123, N-(4-(4-(1-(2-(2,6-dioxopiperidin-3-yl)-1,3-dioxoisoindolin-5-yl)piperidin-4-yl)piperazin-1-yl)phenyl)-N-((1R,4R)-4-(quinazolin-2-ylamino)cyclohexyl)acetamide], the DC50 in test [1] was 100 to 500 nM; in test [2], 500 to 1000 nM.
On to `CC(=O)N(c1ccc(-c2ccc(CN3CCN(c4ccc5c(c4)C(=O)N(C4CCC(=O)NC4=O)C5=O)CC3)nc2)cc1)[C@H]1CC[C@H](Nc2ncc3ccccc3n2)CC1` (stereo partly drawn) [Formula 102, N-(4-(6-((4-(2-(2,6-dioxopiperidin-3-yl)-1,3-dioxoisoindolin-5-yl)piperazin-1-yl)methyl)pyridin-3-yl)phenyl)-N-((1R,4R)-4-(quinazolin-2-ylamino)cyclohexyl)acetamide], for which the DC50 in test [1] was in the range of 500 to 1000 nM; in test [2] it was 100 to 500 nM.
For `CC(=O)N(c1ccc(-c2cnn(C3CCN(c4ccc5c(c4)C(=O)N(C4CCC(=O)NC4=O)C5=O)CC3)c2)cc1)[C@H]1CC[C@H](Nc2ncc3ccccc3n2)CC1` (stereo partly drawn) [Formula 117, N-(4-(1-(1-(2-(2,6-dioxopiperidin-3-yl)-1,3-dioxoisoindolin-5-yl)piperidin-4-yl)-1H-pyrazol-4-yl)phenyl)-N-((1R,4R)-4-(quinazolin-2-ylamino)cyclohexyl)acetamide], in that order: 1000 to 3000 nM and 500 to 1000 nM.
Regarding `CC(=O)N(c1ccc(N2CCN(c3ccc4c(c3)C(=O)N(C3CCC(=O)NC3=O)C4=O)CC2)cc1)[C@H]1CC[C@H](Nc2ncc3ccccc3n2)CC1` (stereo partly drawn) [Formula 104, N-(4-(4-(2-(2,6-dioxopiperidin-3-yl)-1,3-dioxoisoindolin-5-yl)piperazin-1-yl)phenyl)-N-((1R,4R)-4-(quinazolin-2-ylamino)cyclohexyl)acetamide], the DC50 in test [1] and in test [2] was 3000 to 10000 nM throughout.
